The results in this text go back to patent US20230175029A1, “ENZYME CASCADES BASED ON SUCROSE SYNTHASE AND PYROPHO[…] CONVERSION OF ADP TO ATP” (RHEINISCH-WE[…]-NISCHE HOCHSCHULE (RWTH) AACHEN, priority 2020, published 2023).

In general, IC50 refers to the point on the concentration scale where inhibition reaches its midpoint. One may read the residual activity as the signal under treatment as a percentage of the control signal.

Assay [1] concerns the target T1, EcAGPase (Escherichia coli, UniProt P0A6V1). Particulars: 2.5 mM ADP-Glc, 1 mM Fru-1,6-P2, pH 8, 37° C. How it is done: The influence of PPi concentrations on the ATP synthesis activity of the EcAGPase used was investigated.
The experiment included 4.35 μg/mL EcAGPase, 2.5 mM ADP-Glc, 10 mM MgCl2, 1 mM Fru-1,6-P2 and PPi, at concentrations ranging from 0.75 mM to 10 mM, and a control reaction without PPi. ATP synthesis was performed in 600 μL of 100 mM HEPES buffer, pH 8 at 37° C. for 12 min. The synthesis was stopped at the respective measurement points with 28 mM SDS (final concentration 7 mM) and the analysis of the nucleotides (ADP-Glc, AMP, ADP, ATP) was performed by multiplex capillary electrophoresis (internal standards (final concentrations): 1 mM para-aminobenzoic acid and 1 mM 4-aminophthalic acid) and the analytes were detected at 254 nm.

For assay [2], the target named is T1, EcAGPase. Put plainly: Influence of Fru-1,6-P2 concentration on activity of EcAGPase. Type of assay: biochemical, E. coli. Further details: His6; made in house; host or cells: E. coli BL21 (DE3), vector pET22b. Conditions: for EcAGPase activity: 3 mM ADP-Glc, 3 mM PPi, pH 8, 37° C. As to the method: Fru-1,6-P2 was used as an activator for EcAGPase. It is Fru-1,6-P2 a relatively expensive compound and its use in the EcAGPase reaction should be reduced as much as possible. Therefore, the activity of EcAGPase was investigated for different Fru-1,6-P2 concentrations to determine a minimum concentration of the activator.
The experiment included 3.9 μg/mL EcAGPase, 3 mM ADP-Glc, 3 mM PPi, 10 mM MgCl2 and Fru-1,6-P2 at concentrations ranging from 0.1 mM to 1 mM, as well as a control reaction without Fru-1,6-P2.

The target of assay [3] is T1, EcAGPase. In words: Effect of Glc-1-P on ATP synthesis activity of EcAGPase. Type of assay: biochemical, E. coli. Further details: His6; made in house; host or cells: E. coli BL21 (DE3), vector pET22b. Particulars: 3 mM ADP-Glc, 3 mM PPi. The text has this:
The EcAGPase prefers the ADP-Glc synthesis. Thus, the accumulation of Glc-1-P negatively affects the reaction equilibrium for ATP synthesis. Therefore, the effect of Glc-1-P on the ATP synthesis activity of EcAGPase was investigated.

T1 sequence (P0A6V1 whole entry): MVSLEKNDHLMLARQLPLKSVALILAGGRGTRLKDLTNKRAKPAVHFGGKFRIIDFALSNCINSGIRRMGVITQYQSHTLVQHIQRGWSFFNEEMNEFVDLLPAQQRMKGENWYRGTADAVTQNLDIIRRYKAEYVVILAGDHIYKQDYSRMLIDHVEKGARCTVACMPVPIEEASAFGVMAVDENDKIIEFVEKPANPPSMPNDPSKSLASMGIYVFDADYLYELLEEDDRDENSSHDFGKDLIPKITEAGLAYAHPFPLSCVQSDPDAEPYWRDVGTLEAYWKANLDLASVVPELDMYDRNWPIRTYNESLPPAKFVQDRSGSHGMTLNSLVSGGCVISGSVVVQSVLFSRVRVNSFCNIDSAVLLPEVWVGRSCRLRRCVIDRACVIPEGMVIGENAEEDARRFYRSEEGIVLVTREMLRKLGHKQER

In the case of `O=P(O)(O)OP(=O)(O)O` [PPi, inorganic pyrophosphate], the “PPi concentration at which EcAGPase shows a reduction in specific activity” value in assay [1] is reported as “above 3 mM”. The “specific activity of EcAGPase” value in assay [1] (7 mM PPi) is given as 0.6 U/mg.

On to `O=C(COP(=O)(O)O)[C@@H](O)[C@H](O)[C@H](O)COP(=O)(O)O` [Fru-1,6-P2, fructose-1,6-bisphosphate], for which the EcAGPase activity worked out at 20 U/mg in assay [2] (0.25 mM Fru-1,6-P2) and 60 U/mg in assay [2] (0.5 mM Fru-1,6-P2). Moreover, in assay [2] (0.5 mM Fru-1,6-P2), the “EcAGPase activity, fold higher than without activator” value was 12 fold.

For the molecule `O=P(O)(O)O[C@H]1O[C@H](CO)[C@@H](O)[C@H](O)[C@H]1O` [Glc-1-P, glucose-1-phosphate], the “activity of the enzyme relative to activity without addition of Glc-1-P” value in assay [3] (1 mM Glc-1-P, 0.5 mM Fru-1,6-P2) was found to be 71%. For the same molecule, the IC50 in assay [3] (0.5 mM Fru-1,6-P2, pH 8, 37° C.) is 1780 µM. The residual activity in assay [3] (5 mM Glc-1-P, 0.5 mM Fru-1,6-P2) is listed as 27%.
